Test results: patent US20060141098A1, “Nutritional additive for animals” (Kemira Grow How AB, priority 2002, published 2006)

Legend:
[1] = test system: pigs; details: phosphorus digestibility, Veevoedertabel 2000; cited from earlier work
[2] = Calcium solubility in water (ICP); assay type: physicochemical; details: tricalcium phosphate experiment, absolute content
Method: (§1) At room temperature, 3 g sample and 300 ml distilled water have been agitated for 30 min. Subsequently the solution has been diluted to 500 ml and stirred. Then the solution has been filtered to remove the remaining solids. The Ca^2+ content of the solution was determined flame photometrically by means of ICP, and the amount of dissolved phosphorus was determined by the Quimociac method. These two methods are well known in the technical field.

[3] = Phosphorus solubility in water (Quimociac method); assay type: physicochemical; details: tricalcium phosphate experiment, absolute content
Method: as §1

Row | Molecule | Dig. Coeff. for pigs Average [1] | % Ca water sol. [2] [%] | % P water sol. [3] [%]
1 | O=P([O-])([O-])O.[Ca+2] [Dicalcium phosphate, anhydrate] | 0.64 |  | 
2 | Dicalcium phosphate, dihydrate | 0.70 |  | 
3 | hydroxyl apatite [Hydroxyl apatite (ref)] |  | <0.1 | <0.1
